Assay results from patent publication EP2725026A1, “Heterocyclic neoflavonoids with taste masking properties” (Symrise AG, priority 2012, dated 2014).

What was measured:
Assay type in all cases: in vivo
[1] = Bitterness reduction of a bitter substance solution (expert sensory panel), theobromine; conditions: 25 ppm test substance, 300 ppm Theobromin; for Bitter-Eindruck (1-10) mit Testsubstanz: scale 1 [nicht bitter] to 10 [extrem bitter]
Source text: (§1) Um die Reduzierung (d.h. die Maskierung oder Verminderung) des Bitter-Eindrucks in einer Probe zu quantifizieren, wurde die Bitterkeit einer Lösung enthaltend 500 ppm Coffein oder 300 ppm Theobromin oder 100 ppm Naringin von einer Expertengruppe jeweils mit einer Probe verglichen, die 500 ppm Coffein oder 300 ppm Theobromin oder 100 ppm Naringin und zusätzlich die jeweils angegebene Menge einer (hinsichtlich der Fähigkeit zur Bitter-Reduzierung) zu beurteilenden Substanz enthielt (Einstufung: 1 [nicht bitter] bis 10 [extrem bitter]). Für die Auswertung, d.h. die Berechnung der Reduktion (in %) des Bittereindrucks wurden jeweils die Durchschnittswerte der Einschätzungen der Expertengruppe verwendet. Die Ergebnisse sind in Tabelle 1 zusammengefasst: Tabelle 1 Bitter-reduzierung einer Bitterstofflösung

[2] = Bitterness reduction of a bitter substance solution (expert sensory panel), caffeine; conditions: 500 ppm Coffein; for Bitter-Eindruck (1-10) mit Testsubstanz: scale 1 [nicht bitter] to 10 [extrem bitter]
Source text: as §1

[3] = Bitterness reduction of a bitter substance solution (expert sensory panel), naringin; conditions: 100 ppm Naringin; for Bitter-Eindruck (1-10) mit Testsubstanz: scale 1 [nicht bitter] to 10 [extrem bitter]
Source text: as §1

SMILES | Bitter-Eindruck (1-10) mit Testsubstanz ([1]; without test substance 3,6 ± 2,0) | % Reduktion des Bitter-Eindrucks (Signifikanz) ([1]; without test substance 3,6 ± 2,0, p < 0,25) | % Reduktion des Bitter-Eindrucks (Signifikanz) ([2]; 10 ppm test substance, p < 0,0007) | Bitter-Eindruck (1-10) mit Testsubstanz ([2]; 10 ppm test substance, without test substance 3,8 ± 1,3) | % Reduktion des Bitter-Eindrucks (Signifikanz) ([3]; 25 ppm test substance, p < 0,0001) | Bitter-Eindruck (1-10) mit Testsubstanz ([3]; 25 ppm test substance, without test substance 6,6 ± 2,0) | Bitter-Eindruck (1-10) mit Testsubstanz ([1]; without test substance 4,2 ± 2,2) | % Reduktion des Bitter-Eindrucks (Signifikanz) ([2]; 50 ppm test substance, p < 0,35) | Bitter-Eindruck (1-10) mit Testsubstanz ([2]; 50 ppm test substance, without test substance 3,5 ± 1,4) | % Reduktion des Bitter-Eindrucks (Signifikanz) ([3]; 50 ppm test substance, p < 0,02) | Bitter-Eindruck (1-10) mit Testsubstanz ([3]; 50 ppm test substance, without test substance 5,0 ± 2,0)
O=C1C[C@@H](c2ccncc2)c2c(O)cc(O)cc2O1 (racemic) [(1) + (2), (4S)-5,7-dihydroxy-4-(4-pyridyl)chroman-2-on (1) und (4R)-5,7-dihydroxy-4-(4-pyridyl)chroman-2-on (2)] | 2,9 ± 1,4 | 19,4 % (p < 0,25) | 37,0 % (p < 0,0007) | 2,4 + 1,0 | 52,1 % (p < 0,0001) | 3,2 + 1,5 | – | – | – | – | –
O=C1C[C@@H](c2cccnc2)c2c(O)cc(O)cc2O1 (racemic) [(3) + (4), (4S)-5,7-dihydroxy-4-(3-pyridyl)chroman-2-on (3) und (4R)-5,7-dihydroxy-4-(3-pyridyl)chroman-2-on (4)] | – | – | – | – | – | – | 3,4 ± 1,8 | 13,7% (p < 0,35) | 3,1 ± 1,7 | 34,1 % (p < 0,02) | 3,3 ± 1,8
